Laboratory results from ChEMBL document CHEMBL1154582, “Thonningianins A and B, new antioxidants from the African medicinal herb Thonningia sanguinea” (J Nat Prod, 2000).
Calls of active or inactive are those of the source. The rule behind the calls is not given here.

Columns and labels:
Format in all cases: functional
[1] = DPPH radical scavenging activity by ESR spectra
[2] = DPPH radical scavenging activity at 25 uM by ESR spectra
[3] = DPPH radical scavenging activity at 34.5 uM by ESR spectra

O=C(O[C@@H]1[C@@H](O)[C@H](Oc2cc(O)c(C(=O)CCc3ccccc3)c(O)c2)O[C@@H]2COC(=O)c3cc(O)c(O)c(O)c3-c3c(cc(O)c(O)c3O)C(=O)O[C@@H]12)c1cc(O)c(O)c(O)c1 [THONNINGIANIN A]
IC50 [1]: 8 µM | Activity [2]: Active

O=C1OC[C@H]2O[C@@H](Oc3cc(O)c(C(=O)CCc4ccccc4)c(O)c3)[C@H](O)[C@@H](O)[C@@H]2OC(=O)c2cc(O)c(O)c(O)c2-c2c1cc(O)c(O)c2O [THONNINGIANIN B]
IC50 [1]: 21 µM | Activity [3]: 90%
